# Source: US7671054B1, “Reverse-turn mimetics and method relating thereto” (Choongwae Pharma Corporation, priority 2001, dated 2010)
# Tested on: TCF4/β-catenin transcription (TOPFlash) in SW480 cells
# Assay: Reporter gene assay (TOPFlash luciferase)
# Type: cell-based
# Conditions: Homo sapiens, SW480, Table 4; Reporter gene assay as described in Example 6; read-out: IC50
# Description: SW480 cells were transfected with the usage of Superfect™ transfect reagent (Qiagen, 301307). Cells were trypsinized briefly 1 day before transfection and plated on 6 well plate (5×10^5 cells/well) so that they were 50-80% confluent on the day of transfection.
# Four microgram (TOPFlash) and one microgram (pRL-null) of DNAs were diluted in 150 μl of serum-free medium, and 30 μl of Superfect™ transfect reagent was added. The DNA-Superfect mixture was incubated at room temperature for 15 min, and then, 1 ml of 10% FBS DMEM was added to this complex for an additional 3 hours of incubation. While complexes were forming, cells were washed with PBS twice without antibiotics.
# The DNA-Superfect™ transfect reagent complexes were applied to the cells before incubating at 37° C. at 5% CO2 for 3 hours. After incubation, recovery medium with 10% FBS was added to bring the final volume to 1.18 ml. After 3 hours incubation, the cells were harvested and reseeded to 96 well plate (3×10^4 cells/well). After overnight incubation at 37° C. at 5% CO2, the cells were treated with Compound A for 24 hours. Finally, the activity was checked by means of luciferase assay (Promega, E1960).
row,SMILES,IC50 [µM]
1,CC(C)N(C)c1cccc([C@H](C)N2C[C@H]3N(C(=O)CN(C)N3C(=O)NCc3ccccc3)[C@@H](Cc3ccc(O)cc3)C2=O)c1 [Compound 66],11.8
2,CC(C)N(C)c1cccc([C@@H](C)N2C[C@H]3N(C(=O)CN(C)N3C(=O)NCc3ccccc3)[C@@H](Cc3ccc(O)cc3)C2=O)c1 [Compound 67],6.8
3,C[C@H]1[C@@H]2N(C(=O)CN(C)N2C(=O)NCc2ccccc2)[C@@H](Cc2ccc(O)cc2)C(=O)N1Cc1ccc(F)cc1F [Compound 69],1.4 ± 0.7
4,CN1CC(=O)N2[C@@H](Cc3ccc(O)cc3)C(=O)N(Cc3cccc4cnn(Cc5ccccc5[N+](=O)[O-])c34)C[C@@H]2N1C(=O)NCc1ccccc1 [Compound 74],2.1 ± 0.2
5,C[C@H]1[C@H]2N(C(=O)CN(C)N2C(=O)NCc2ccccc2)[C@@H](Cc2ccc(O)cc2)C(=O)N1Cc1cccc(N(C)C)c1 [Compound 78],4.3 ± 0.9
6,CN(Cc1ccccc1)c1cccc(CN2C[C@H]3N(C(=O)CN(C)N3C(=O)NCc3ccccc3)[C@@H](Cc3ccc(O)cc3)C2=O)c1 [Compound 79],16.5 ± 4.8
7,C[C@H]1[C@H]2N(C(=O)CN(C)N2C(=O)NCc2ccccc2)[C@@H](Cc2ccc(O)cc2)C(=O)N1Cc1ccc(Cl)c(N(C)C)c1 [Compound 80],7.9 ± 2
8,CN1CC(=O)N2[C@@H](Cc3ccc(O)cc3)C(=O)N(Cc3ccc(F)cc3F)[C@@H](COC=O)[C@@H]2N1C(=O)NCc1ccccc1 [Compound 81],66.1 ± 6.8
9,CN1CC(=O)N2[C@@H](Cc3ccc(O)cc3)C(=O)N(Cc3ccc(F)cc3F)[C@@H](CO)[C@@H]2N1C(=O)NCc1ccccc1 [Compound 82],68.1 ± 8.9
10,C[C@@H]1[C@H]2N(C(=O)CN(C)N2C(=O)NCc2ccccc2)[C@@H](Cc2ccc(O)cc2)C(=O)N1Cc1ccc(Cl)c(N(C)C)c1 [Compound 83],46.4 ± 3.7
11,CCOP(=O)(CC(=O)Nc1ccc(C[C@H]2C(=O)N(Cc3cccc4ccccc34)C[C@H]3N2C(=O)CN(C)N3C(=O)NCc2ccccc2)cc1)OCC [Compound 84],46.7 ± 6.7
12,CN1CC(=O)N2[C@@H](Cc3ccc(O)cc3)C(=O)N(Cc3ccc4cnn(Cc5ccccc5N)c4c3)C[C@@H]2N1C(=O)NCc1ccccc1 [Compound 86],9.9 ± 2.6
13,CN1CC(=O)N2[C@@H](Cc3ccc(O)cc3)C(=O)N(Cc3cccc4cnn(CCN5CCOCC5)c34)C[C@@H]2N1C(=O)NCc1ccccc1 [Compound 94],7.6 ± 0.6
14,COC(=O)c1ccccc1Cn1ncc2c(CN3C[C@H]4N(C(=O)CN(C)N4C(=O)NCc4ccccc4)[C@@H](Cc4ccc(O)cc4)C3=O)cccc21 [Compound 99],2.4 ± 0.3
15,C#CCN1CC(=O)N2[C@@H](Cc3ccc(O)cc3)C(=O)N(Cc3ccc(F)cc3F)[C@@H](C)[C@@H]2N1C(=O)NCc1ccccc1 [Compound 111],7.2 ± 0.8
16,C#CCN1CC(=O)N2[C@@H](Cc3ccc(O)cc3)C(=O)N(Cc3cccc4c3cnn4CCN3CCOCC3)C[C@@H]2N1C(=O)NCc1ccccc1 [Compound 112],4.1 ± 0.8
17,CN1CC(=O)N2[C@@H]([C@H](O)c3ccc(O)cc3)C(=O)N(Cc3ccc(F)cc3F)C[C@@H]2N1C(=O)NCc1ccccc1 [Compound 113],7.3 ± 1.1
18,CN1CC(=O)N2[C@@H](Cc3ccc(O)cc3)C(=O)N(Cc3cccc(N4CCOCC4)c3)C[C@@H]2N1C(=O)NCc1ccccc1 [Compound 117],6.9 ± 0.6
19,C#CCN1CC(=O)N2[C@@H](Cc3ccc(O)cc3)C(=O)N(Cc3cccc(N4CCOCC4)c3)C[C@@H]2N1C(=O)NCc1ccccc1 [Compound 118],0.8 ± 0.1
20,O=C1[C@H](Cc2ccc(O)cc2)N2C(=O)CON(C(=O)NCc3ccccc3)[C@H]2CN1Cc1cccc2cccnc12 [Compound 119],8.8 ± 1.3
21,CN(Cc1cccc(CN2C[C@H]3N(C(=O)CN(C)N3C(=O)NCc3ccccc3)[C@@H](Cc3ccc(O)cc3)C2=O)c1)C1CCOCC1 [Compound 120],34.4 ± 4.9
22,CCN1CC(=O)N2[C@@H](Cc3ccc(O)cc3)C(=O)N(Cc3cccc(N4CCOCC4)c3)C[C@@H]2N1C(=O)NCc1ccccc1 [Compound 123],11.7 ± 1
23,CCCN1CC(=O)N2[C@@H](Cc3ccc(O)cc3)C(=O)N(Cc3cccc(N4CCOCC4)c3)C[C@@H]2N1C(=O)NCc1ccccc1 [Compound 124],6.4 ± 0.4
24,CCN1CC(=O)N2[C@@H](Cc3ccc(O)cc3)C(=O)N(Cc3ccc(Cl)c(N(C)C)c3)C[C@@H]2N1C(=O)NCc1ccccc1 [Compound 125],9.8 ± 0.7

# Other lines, results leading:
row,IC50 [µM],SMILES
1,4.3 ± 0.8,CN1CC(=O)N2[C@@H](Cc3ccc(NC=O)cc3)C(=O)N(Cc3cccc4ccccc34)C[C@@H]2N1C(=O)NCc1ccccc1 [Compound 68]
2,8.8 ± 1.9,CN1CC(=O)N2[C@@H](Cc3ccc(O)cc3)C(=O)N(Cc3cccc4[nH]ncc34)C[C@@H]2N1C(=O)NCc1ccccc1 [Compound 70]
3,6.5 ± 0.7,CN1CC(=O)N2[C@@H](Cc3ccc(O)cc3)C(=O)N(Cc3cccc(N4CCCCC4)c3)C[C@@H]2N1C(=O)NCc1ccccc1 [Compound 71]
4,50.5 ± 18.4,CN1CC(=O)N2[C@@H](Cc3ccc(O)cc3)C(=O)N(Cc3cccc4nnn(C)c34)C[C@@H]2N1C(=O)NCc1ccccc1 [Compound 75]
5,10.7 ± 2.5,CN1CC(=O)N2[C@@H](Cc3ccc(O)cc3)C(=O)N(Cc3cccc4c3nnn4C)C[C@@H]2N1C(=O)NCc1ccccc1 [Compound 76]
6,7.2 ± 2.5,CN1CC(=O)N2[C@@H](Cc3ccc(O)cc3)C(=O)N(Cc3ccc4ncsc4c3)C[C@@H]2N1C(=O)NCc1ccccc1 [Compound 77]
7,8.1 ± 0.8,CN(C)CCn1ncc2cccc(CN3C[C@H]4N(C(=O)CN(C)N4C(=O)NCc4ccccc4)[C@@H](Cc4ccc(O)cc4)C3=O)c21 [Compound 87]
8,2.2 ± 0.2,CN1CC(=O)N2[C@@H](Cc3ccc(O)cc3)C(=O)N(Cc3cccc4c3cnn4Cc3ccccc3N)C[C@@H]2N1C(=O)NCc1ccccc1 [Compound 88]
9,13.9 ± 0.9,CN1CC(=O)N2[C@@H](Cc3ccc(O)cc3)C(=O)N(Cc3ccc4cn[nH]c4c3)C[C@@H]2N1C(=O)NCc1ccccc1 [Compound 89]
10,3.9,CN(Cc1ccccc1N)c1cccc(CN2C[C@H]3N(C(=O)CN(C)N3C(=O)NCc3ccccc3)[C@@H](Cc3ccc(O)cc3)C2=O)c1 [Compound 90]
11,2.9 ± 0.2,CN1CC(=O)N2[C@@H](Cc3ccc(O)cc3)C(=O)N(Cc3cccc4cn(Cc5cccc(N)c5)nc34)C[C@@H]2N1C(=O)NCc1ccccc1 [Compound 91]
12,3.8 ± 1.2,CN1CC(=O)N2[C@@H](Cc3ccc(O)cc3)C(=O)N(Cc3cccc4cnn(Cc5cccc(N)c5)c34)C[C@@H]2N1C(=O)NCc1ccccc1 [Compound 92]
13,6.8 ± 1.3,C#CCn1ncc2ccc(CN3C[C@H]4N(C(=O)CN(C)N4C(=O)NCc4ccccc4)[C@@H](Cc4ccc(O)cc4)C3=O)cc21 [Compound 93]
14,13.3 ± 1.4,CN1CC(=O)N2[C@@H](Cc3ccc(O)cc3)C(=O)N(Cc3ccc4cccnc4c3)C[C@@H]2N1C(=O)NCc1ccccc1 [Compound 95]
15,8.1 ± 0.9,C#CCn1cc2c(CN3C[C@H]4N(C(=O)CN(C)N4C(=O)NCc4ccccc4)[C@@H](Cc4ccc(O)cc4)C3=O)cccc2n1 [Compound 96]
16,12.6 ± 1.2,CN1CC(=O)N2[C@@H](Cc3ccc(O)cc3)C(=O)N(Cc3ccccc3N3CCOCC3)C[C@@H]2N1C(=O)NCc1ccccc1 [Compound 97]
17,14.4 ± 2.2,CN1CC(=O)N2[C@@H](Cc3ccc(O)cc3)C(=O)N(Cc3cccc4c3cnn4CCN3CCOCC3)C[C@@H]2N1C(=O)NCc1ccccc1 [Compound 98]
18,2.7 ± 0.3,CN1CC(=O)N2[C@@H](Cc3ccc(O)cc3)C(=O)N(Cc3cccc4nn(CCN5CCOCC5)cc34)C[C@@H]2N1C(=O)NCc1ccccc1 [Compound 100]
19,62 ± 17,C#CCNC(=O)N1[C@H]2CN(Cc3cccc4ccccc34)C(=O)[C@H](Cc3ccc(O)cc3)N2C(=O)CN1C [Compound 102]
20,4.6 ± 0.4,CN1CC(=O)N2[C@@H](Cc3ccc(O)cc3)C(=O)N(Cc3cccc4cnn(Cc5ccc(N)cc5)c34)C[C@@H]2N1C(=O)NCc1ccccc1 [Compound 104]
21,16.6 ± 2.7,C#CCn1ncc2cccc(CN3C[C@H]4N(C(=O)CN(C)N4C(=O)NCc4ccccc4)[C@@H](Cc4ccc(O)cc4)C3=O)c21 [Compound 105]
22,2.6 ± 0.2,C#CCn1cc2cccc(CN3C[C@H]4N(C(=O)CN(C)N4C(=O)NCc4ccccc4)[C@@H](Cc4ccc(O)cc4)C3=O)c2n1 [Compound 106]
23,2.7 ± 0.3,C#CCNC(=O)c1ccccc1Cn1ncc2c(CN3C[C@H]4N(C(=O)CN(C)N4C(=O)NCc4ccccc4)[C@@H](Cc4ccc(O)cc4)C3=O)cccc21 [Compound 107]
24,1.6 ± 0.1,C#CCN1CC(=O)N2[C@@H](Cc3ccc(O)cc3)C(=O)N(Cc3cc(F)c(F)cc3N(C)C)C[C@@H]2N1C(=O)NCc1ccccc1 [Compound 108]
25,3.8 ± 0.6,C#CCN1CC(=O)N2[C@@H](Cc3ccc(O)cc3)C(=O)N(Cc3ccc(Cl)c(N(C)C)c3)C[C@@H]2N1C(=O)NCc1ccccc1 [Compound 110]
26,0.4 ± 0.04,C#CCN1CC(=O)N2[C@@H](Cc3ccc(O)cc3)C(=O)N(Cc3cccc4cccnc34)C[C@@H]2N1C(=O)NCc1ccccc1 [Compound 114]
27,8 ± 0.7,CN(C)Cc1cccc(CN2C[C@H]3N(C(=O)CN(C)N3C(=O)NCc3ccccc3)[C@@H](Cc3ccc(O)cc3)C2=O)c1 [Compound 116]
28,3 ± 0.4,CCN1CC(=O)N2[C@@H](Cc3ccc(O)cc3)C(=O)N(Cc3cccc4cccnc34)C[C@@H]2N1C(=O)NCc1ccccc1 [Compound 121]
29,2.1 ± 0.4,CCCN1CC(=O)N2[C@@H](Cc3ccc(O)cc3)C(=O)N(Cc3cccc4cccnc34)C[C@@H]2N1C(=O)NCc1ccccc1 [Compound 122]
